What was measured:
[1] = molecular target: T1, biotinylated TAT-MUC1 binding to ZO1 d2 (Homo sapiens, UniProt Q07157); experiment: Modified ELISA: competition with binding of biotinylated TAT-MUC1 peptide (SEQ ID NO: 134) to PDZ domain
T1 construct: made in house; host or cells: E. coli
T1 sequence (Q07157 186-264 limits assumed): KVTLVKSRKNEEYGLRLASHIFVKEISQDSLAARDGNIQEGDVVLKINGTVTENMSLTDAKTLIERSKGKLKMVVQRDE

[2] = molecular target: T2, KIAA0751 (RIM2) PDZ domain 1 (Homo sapiens, UniProt Q9UQ26); experiment: Modified ELISA: titration of biotinylated peptide against GST-PDZ domain fusion protein; assay type: binding
T2 construct: RIM2, PDZ domain 1: GI#: 12734165; made in house; host or cells: E. coli
T2 sequence (Q9UQ26 668-754 limits assumed): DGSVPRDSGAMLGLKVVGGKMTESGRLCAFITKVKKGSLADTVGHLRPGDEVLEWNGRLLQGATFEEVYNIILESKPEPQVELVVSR
Description: Coat plate with 100 μl of 5 μg/ml anti-GST, O/N at 4° C.;
Dump contents of plate & out tap dry on paper towels;
Block with 200 μl Assay Buffer for 2 hrs at room temperature;
Prepare proteins in Assay Buffer;
Add proteins at 50 μl per well, incubate 1 to 2 hrs at 4° C.;
Prepare peptides in Assay Buffer;
Add peptides at 50 μl per well on ice (write time on plate);
Incubate on ice after last peptide has been added for exactly 10 minutes;
Place at room temp for exactly 20 minutes;
Prepare HRP-Streptavidin within 10 minutes of time of use;
Promptly wash 3× with cold PBS;
Add 100 μl per well of HRP-Streptavidin (write time on plate);
Incubate at 4° C. for exactly 20 minutes;
Turn on plate reader and prepare files;
Promptly wash 5× with PBS at room temperature;
Add 100 μl/well TMB substrate (write time on plate);
Incubate in dark at room temp for a maximum of 30 minutes;
Read plate at 25 minutes (650 nm);
Stop reaction with 100 μl of 0.18M H2SO4, 30 min. after adding TMB;
Take last reading at 450 nm soon after stopping reaction;
Titrations to determine relative EC50 values: Peptide corresponding to MUC1 was then titrated against a constant amount of the PDZ domain-containing recombinant proteins identified in the first part of this example.
Using the modified ELISA described supra in Example 6, the effect of two variant carboxy-terminal MUC1 peptides were examined. Two MUC1 isoforms with an A/T substitutions at the fifth amino acid residue from the carboxy-terminal end have been reported in the literature, e.g., carboxy-terminal AAASANL disclosed in GenBank P15941 [gi:547937] and carboxy-terminal AATSANL disclosed in GenBank A35175 [gi:11385307]. Peptides were prepared consisting of the TAT sequence SEQ ID NO: 102 and the terminal nine amino acid residues of the relevant MUC1 sequence, i.e., […]
Using the modified ELISA described supra in Example 7, the binding to the RIM2 PDZ domain of the biotinylated peptide sequences listed in Table 8 were examined. […] Relative EC50 values were calculated from a curve fit of the data for each interaction.

PDZ domains = experiment: Self-competition experiments in modified ELISA; assay type: binding, human; conditions: of the three peptides tested

## YGRKKRRQRRRQDEEEGIWA [SEQ ID NO: 137]
[1]
  Competition for binding of biotinylated SEQ ID NO: 134 (TAT-MUC1): only a relatively weak competitor
[2]
  EC50 for binding to RIM2, compared with SEQ ID NO: 136: lower EC50
  Selectivity of binding, RIM2 versus ZO 1 d2: binds RIM2 more strongly than ZO 1 d2
[2]; comparison of SEQ ID NO: 136, 137, 138
  Tightness of binding to RIM2 among the three peptides: binds most tightly
PDZ domains
  Behaviour in self-competition experiments: acts the most like a traditional competitive inhibitor
